{"source": "patent US11331364B2", "about": "“Use for JNK inhibitor molecules for treatment of various diseases” (Xigen Inflammation Ltd., priority 2014, dated 2022)", "key": {"hJNK3": {"biological_target": "hJNK3 (Homo sapiens, UniProt P53779)", "sequence (P53779 whole entry, looked up)": "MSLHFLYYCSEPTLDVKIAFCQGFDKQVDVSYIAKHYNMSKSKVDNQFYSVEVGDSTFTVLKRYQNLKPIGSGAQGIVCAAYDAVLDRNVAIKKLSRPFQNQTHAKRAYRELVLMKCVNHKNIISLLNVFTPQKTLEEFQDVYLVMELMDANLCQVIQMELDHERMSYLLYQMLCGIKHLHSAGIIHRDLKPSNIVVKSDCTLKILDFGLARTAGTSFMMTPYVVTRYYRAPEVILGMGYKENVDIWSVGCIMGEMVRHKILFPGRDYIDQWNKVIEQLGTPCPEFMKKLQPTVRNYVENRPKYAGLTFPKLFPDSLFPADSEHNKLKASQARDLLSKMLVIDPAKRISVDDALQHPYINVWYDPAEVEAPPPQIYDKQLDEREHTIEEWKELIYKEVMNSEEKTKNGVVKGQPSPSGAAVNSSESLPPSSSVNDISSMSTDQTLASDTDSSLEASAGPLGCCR", "assay": "hJNK3 | IC50", "conditions": "read-out: hJNK3 | IC50"}, "human whole blood": {"tested_on": "human whole blood", "assay": "LPS-induced IL-6 release in human whole blood", "type": "cell-based", "conditions": "1, 3, 10 μM 1 h before LPS (0.02 ng/mL), 4 hours", "experimental": "FIG. 18 JNK inhibition and IL-6 release in human whole blood. The JNK inhibitor with SEQ ID NO: 172 was added at three different concentrations, namely 1, 3 and 10 μM 1 h before whole blood stimulation with LPS (0.02 ng/mL) for 4 hours.\nWhole blood is collected from anesthetized rat or human healthy volunteers using a venipuncture connected to a pre-labeled vacuum tube containing sodium citrate. Tubes are gently mixed by inversion 7-8 times; and are then kept at RT until stimulation. JNK inhibitor of SEQ ID NO: 172 is prepared 6 times concentrated in PBS, and 30 μl/well of mix is added into 96-well plate. Whole blood is diluted by 1:2 in PBS and 120 μl of diluted blood is added in each well where either PBS alone or JNK inhibitor of SEQ ID NO: 172 has been previously added. Whole blood is incubated at 37° C.; 85 rpm (Stuart Orbital incubator SI500) for 60 min. Activators (LPS) are the prepared, 30 μl/well of LPS, 6 times concentrated. After 60 min incubation, LPS is added to the blood, blood is mixed by pipetting up and down, and then kept for 4 h under agitation (85 rpm), at 37° C. […] Cytokine (IL-6, IL-2, IFNγ and TNFα) were then measured using standard Elisa kits (e.g. from R&D Systems: DuoSet Elisas; or from BD Biosciences: BD Opteia Set Elisa). Results are expressed as pg/ml of supernatant of the measured cytokine."}, "PKR−/− neurons": {"tested_on": "PKR−/− neurons", "assay": "Neuronal apoptosis after Aβ42 stress in PKR−/− primary cortical neurons", "type": "cell-based, mouse", "experimental": "To obtain primary cortical neuronal cultures, E15.5 mice embryos were dissected in PBS (Phosphate Buffered Saline) 6% glucose, on ice. Embryos cortices were minced into small pieces and treated with PBS glucose trypsin (Sigma Aldrich, Saint-Louis, USA) for 20 min at 37° C. Dissociated cortical cells were cultured in Neurobasal media complemented with B27, Glutamax and penicillin-streptomycin (Gibco). Neurons were cultured at 37° C., 5% CO2 on pre-coated with poly-L-lysin (Sigma Aldrich) petri dishes. Neurons were cultured to maturity (7 days) before use.\nTo induce […] stress 2 μM of Aβ1-42 (Thermo Fisher Scientific, Mass., USA) were used during 5 h on cortical neurons. Aβ42-1 inversed peptide (Thermo Fisher Scientific) was used as negative control. AP 1-42 and Aβ42-1 were dissolved in pure water and incubated at 37° C. for 48 h before use.\nTo inhibit JNK, cortical neurons were pre-treated with 10 μM of XG-104 1 h before cell-stress treatment.\nFor immunoblot analysis cells were lysed on ice in a lysis buffer containing […] NaPi pH 7.8, […] NaCl, 1% Triton, 0.5% DOC, 0.1% SDS, 10% glycerol, 0.1 μM calyculin A, 1 mM Na3VO4 and 1× of a protease inhibitor cocktail (Sigma Aldrich). Lysates were sonicated and centrifugated 10 min at 15000 g at 4° C. The supernatant protein concentration was determined with the Micro BCA protein assay kit (Thermo Scientific). Thirty micrograms of proteins were resolved on SDS-PAGE and transferred onto nitrocellulose membrane. After blocking with TBS 5% skim milk, the membranes were probed with primary antibodies to JNK full, c-Jun, PKR, eIF2α (Santa Cruz, Danvers, USA), pJNK (Millipore, Billerica, USA), phosphor eIF2a (Thermo Fisher Scientific), PARP and tubulin (Cell Signaling, Danvers, USA). IR Dyes 800 and 700 (Rockland Immunochemical Inc, Gilbertsville, USA) antibodies were used as secondary antibodies. Blots were reveled with Odyssey imaging system (LI-COR Biosciences, Lincoln, USA).\nFor caspase 3 activity analysis culture cell supernatants containing degenerating and dead neurons, and cell medium were collected in parallel of adhesive neurons lysis. Culture cell supernatants were centrifugated 10 min at 15000 g at 4° C. Pellets were then resuspended in lysis buffer and caspase 3 activity was measured by using the Caspase 3 Assay kit reagents and protocol (Abcam, Cambridge, UK)."}, "[1]": {"conditions": "PKR−/− neurons, 10 μM, vs Aβ42 treated PKR−/− neurons"}, "[2]": {"conditions": "dual inhibition of PKR and JNK, vs treated WT neurons"}}, "note": "Square brackets hold non-standard residues; d marks the D form. Peptide text beside a SMILES is read from it.", "data": [{"smiles": "CC(C)C[C@H](NC(=O)[C@H](CC(N)=O)NC(=O)[C@H](CC(C)C)NC(=O)[C@@H](NC(=O)[C@@H](C)NC(=O)[C@@H]1CCCN1C(=O)[C@H](CCCNC(=N)N)NC(=O)[C@@H](CCCCN)NC(=O)[C@@H]1CCCN1C(=O)[C@H](CCCNC(=N)N)NC(=O)[C@@H](CCCNC(=N)N)NC(=O)[C@H](CCCNC(=N)N)NC(=O)[C@H](CCCNC(=N)N)NC(=O)[C@H](CCC(N)=O)NC(=O)[C@@H](CCCNC(=N)N)NC(=O)[C@H](CCCNC(=N)N)NC(=O)[C@H](CCCCN)NC(=O)[C@H](CCCCN)NC(=O)[C@H](N)CCCNC(=N)N)[C@@H](C)O)C(=O)N[C@H](Cc1ccccc1)C(N)=O", "note": "[SEQ ID NO: 172, rKKRrQRRrRPkRPaTLNLf] (H-[dR]KKR[dR]QRR[dR]RP[dK]RP[dA]TLNL[dF]-NH2; N-terminus assumed)", "values": [{"measurement": "IC50", "setting": "hJNK3", "result": 102, "unit": "nM"}, {"measurement": "LPS-induced IL-6 release", "setting": "human whole blood", "result": "did reduce the LPS-induced IL-6 release in a dose-dependent manner"}, {"measurement": "decrease of caspase 3 activity", "setting": "PKR−/− neurons; [1]", "result": 61, "unit": "%"}, {"measurement": "decrease of cleaved PARP expression level", "setting": "PKR−/− neurons; [1]", "result": 86, "unit": "%"}, {"measurement": "decrease of cleaved caspase 3 expression level", "setting": "PKR−/− neurons; [1]", "result": 42, "unit": "%"}, {"measurement": "decrease of PARP expression levels", "setting": "PKR−/− neurons; [2]", "result": 93, "unit": "%"}, {"measurement": "decrease of caspase 3 activity", "setting": "PKR−/− neurons; [2]", "result": 87, "unit": "%"}, {"measurement": "decrease of cleaved caspase 3", "setting": "PKR−/− neurons; [2]", "result": 83, "unit": "%"}]}]}
